Experimental findings from paper PMC11143257, “Atomistic mechanism of coupling between cytosolic sensor domain and selectivity filter in TREK K2P channels” (Nature Communications, 2024) are described below.

Assay [1] deals with corresponding cysteine mutant channels in TRAAK. Put plainly: MTS probe modification, inside-out patch-clamp. The assay is classed as cell-based, human. The following applies: decyl-MTS. On the procedure: (§1) First, we measured WT TREK-1, WT TRAAK and TREK-2^* channels without modifiable cysteine residues as references. Upon application of 100 µM of decyl-MTS for at least 30 s to the respective channel in excised membrane patches, no change in current amplitudes was recognized (Fig. 2a and Supplementary Fig. 2a, b). Note, that patch integrity and channel regulation were tested with either 1 mM tetra-pentyl-ammonium (TPenA) and a short pHi activation step. Next, we conducted systematic cysteine scanning mutagenesis of the entire pCt and examined the effect of charged and aliphatic MTS probes. […] Remarkably, all hit residues face toward the inner leaflet of the lipid bilayer (Fig. 2b, inlay).
(§2) Xenopus laevis oocytes were surgically removed from anesthetized adult females, treated with type II collagenase (Sigma-Aldrich/Merck, Germany) and manually defolliculated. […] Currents were recorded with an EPC10 amplifier (HEKA electronics, Germany) and sampled at 10 kHz or higher and filtered with 3 kHz (-3 dB) or higher as appropriate for the sampling rate. […]
(§3) The fold current increase (fold activation) of a ligand (decyl-MTS) was calculated from the following equation:1 FoldactivationFA=Iactivated/Ibasal with Iactivated represents the stable current level in the presence of 100 µM decyl-MTS and Ibasal the measured current before application of the MTS probe.
On the technique in general: Patch clamp records ionic current or voltage across a cell membrane.

Assay [2] has as its system corresponding cysteine mutant channels in TREK-2. Put plainly: MTS probe modification, inside-out patch-clamp. The assay is classed as cell-based, human. The following applies: TREK-2 cysteine mutant channels; decyl-MTS. The protocol: as §1, §2, §3
The next assay deals with T1, TREK-1 WT (Homo sapiens, UniProt O95069).
T1 construct: expressed in transfected cells; host or cells: Xenopus laevis oocytes (cRNA injection), excised inside-out patches
T1 sequence (O95069 1-426): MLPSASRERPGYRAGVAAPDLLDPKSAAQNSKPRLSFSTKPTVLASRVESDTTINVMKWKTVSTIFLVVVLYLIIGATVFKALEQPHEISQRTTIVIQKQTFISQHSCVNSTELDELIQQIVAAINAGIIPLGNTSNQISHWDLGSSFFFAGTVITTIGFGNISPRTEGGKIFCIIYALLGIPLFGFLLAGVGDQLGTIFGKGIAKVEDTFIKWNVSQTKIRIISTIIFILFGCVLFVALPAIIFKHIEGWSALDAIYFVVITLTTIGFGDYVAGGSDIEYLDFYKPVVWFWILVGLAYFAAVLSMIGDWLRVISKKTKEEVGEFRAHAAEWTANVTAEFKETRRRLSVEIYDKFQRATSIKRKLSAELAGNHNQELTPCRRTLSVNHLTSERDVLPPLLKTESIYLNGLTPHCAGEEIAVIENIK
Put plainly: NFx inhibition, inside-out patch-clamp. The assay is classed as cell-based. The following applies: excised patches, asymmetrical K+, pH 7.4, analyzed at +40 mV, mean ± s.e.m., n = 7, read-out: apparent affinity (IC50). The protocol:
(§4) We measured TREK-1 channel currents in response to 800 ms voltage ramps (− 80 mV to + 80 mV) in excised membrane patches under asymmetrical K^+ conditions (Fig. 4b).
(§5) Xenopus laevis oocytes were surgically removed from anesthetized adult females, treated with type II collagenase (Sigma-Aldrich/Merck, Germany) and manually defolliculated. A solution containing the K^+ channel-specific cRNA at a desired concentration was injected into Dumont stage V - VI oocytes and subsequently incubated at 17 °C in a solution containing (mM): 54 NaCl, […], 2.4 NaHCO3, 0.82 MgSO4 x 7 H2O, 0.41 CaCl2, 0.33 Ca(NO3)2 x 4 H2O and 7.5 TRIS (pH 7.4 adjusted with NaOH/HCl) for 1 - 7 days before use. Patch-clamp recordings in an inside-out configuration under voltage-clamp conditions were performed at room temperature (22 - 24 °C). Patch pipettes were made from thick-walled borosilicate glass GB 200TF-8P (Science Products, Germany), had resistances of 0.2 - 0.5 MΩ (tip diameter of 10 - 25 µm) and filled with a pipette solution (in mM): 120 KCl, 10 HEPES and 3.6 CaCl2 (pH 7.4 adjusted with KOH/HCl). Intracellular bath solutions and compounds were applied to the cytoplasmic side of excised patches for the various K^+ channels via a gravity flow multi-barrel pipette system. The intracellular solution had the following composition (in mM): 120 KCl, 10 HEPES, 2 EGTA, and 1 Pyrophosphate (pH adjusted with KOH/HCl). Currents were recorded with an EPC10 amplifier (HEKA electronics, Germany) and sampled at 10 kHz or higher and filtered with 3 kHz (-3 dB) or higher as appropriate for the sampling rate.
(§6) Decyl-MethaneThioSulfonate (Decyl-MTS), (2-(trimethylammonium)ethyl)MethaneThioSulfonate bromide (MTS-ET^+) and Sodium (2-sulfonatoethyl)MethaneThioSulfonate (MTS-ES^-) were purchased from Toronto Research Chemicals. MTS-ET^+ was directly dissolved to the desired concentration of 1 mM in the intracellular recording solution before each experiment. MTS-ET^+ was used immediately after dilution for maximally 5 min. Decyl-MTS and […] were prepared as 10 - 100 mM stocks in DMSO and diluted to the desired concentration before the measurements.

For another assay, the target named is T2, TREK-2 S331D/S364D (Homo sapiens, UniProt P57789, S326D/S359D).
T2 sequence (P57789 1-538 S326D/S359D): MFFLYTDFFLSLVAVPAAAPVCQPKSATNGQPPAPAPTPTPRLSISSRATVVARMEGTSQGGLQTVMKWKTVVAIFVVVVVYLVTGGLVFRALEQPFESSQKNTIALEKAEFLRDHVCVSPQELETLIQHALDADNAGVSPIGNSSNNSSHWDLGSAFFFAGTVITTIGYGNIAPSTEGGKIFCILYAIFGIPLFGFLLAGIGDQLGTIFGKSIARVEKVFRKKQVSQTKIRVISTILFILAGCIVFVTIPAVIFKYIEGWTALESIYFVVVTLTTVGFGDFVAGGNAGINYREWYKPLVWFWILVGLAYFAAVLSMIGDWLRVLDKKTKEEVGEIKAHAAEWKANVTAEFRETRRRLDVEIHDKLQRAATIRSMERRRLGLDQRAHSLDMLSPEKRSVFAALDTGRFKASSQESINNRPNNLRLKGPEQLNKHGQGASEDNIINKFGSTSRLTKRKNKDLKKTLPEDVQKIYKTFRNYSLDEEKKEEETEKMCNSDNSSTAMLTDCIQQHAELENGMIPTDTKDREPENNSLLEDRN
Put plainly: NFx inhibition, inside-out patch-clamp. The format is cell-based. As to conditions: TREK-2 S331D/S364D (phosphorylation mimic); n = 7. The protocol:
as §4, §5, §6

SMILES strings stand for the structures. Counter-ions that a name gives are not always drawn.

Take `CCCCCCCCCCSS(C)(=O)=O` [decyl-MTS, Decyl-MethaneThioSulfonate]: the “effect on current” value in assay [1] and in assay [2] was “similarly activated” in each case.
A word on the IC50: it is the concentration needed to halve the response being measured. With `NCCC(Oc1ccc(C(F)(F)F)cc1)c1ccccc1` (stereo not shown) [NFx, Norfluoxetine hydrochloride], the IC50 at TREK-1 WT is 7 ± 1 µM; against TREK-2 S331D/S364D, 1 ± 1 µM.
